Experimental data reported in patent publication EP4722207A1, “OXOISOINDOLINYL-SUBSTITUTED TETRAHYDROPYRIMIDINEDIONE DERIVATIVE AND USE THEREOF” (Gluetacs Therapeutics (Shanghai) Co., Ltd., priority 2023, dated 2024).

Experiments:
Assay type in all cases: cell-based
IKZF3 = target: T1, IKZF3 (Homo sapiens, UniProt Q96SW2+Q9UKT9); experiment: Western-blot assay, substrate protein degradation in hPBMCs: IKZF3; conditions: for substrate protein remaining % IKZF3: 24 hours of compound treatment, 50 nM and 500 nM; for IKZF3 substrate protein remaining %: compounds at 50 nM and 500 nM, 24 hours
T1 construct: effects of the compounds of the present disclosure on the expression of target proteins in cells; endogenous in cells; host or cells: human PBMCs (hPBMCs)
T1 sequence (Q9UKT9 whole entry): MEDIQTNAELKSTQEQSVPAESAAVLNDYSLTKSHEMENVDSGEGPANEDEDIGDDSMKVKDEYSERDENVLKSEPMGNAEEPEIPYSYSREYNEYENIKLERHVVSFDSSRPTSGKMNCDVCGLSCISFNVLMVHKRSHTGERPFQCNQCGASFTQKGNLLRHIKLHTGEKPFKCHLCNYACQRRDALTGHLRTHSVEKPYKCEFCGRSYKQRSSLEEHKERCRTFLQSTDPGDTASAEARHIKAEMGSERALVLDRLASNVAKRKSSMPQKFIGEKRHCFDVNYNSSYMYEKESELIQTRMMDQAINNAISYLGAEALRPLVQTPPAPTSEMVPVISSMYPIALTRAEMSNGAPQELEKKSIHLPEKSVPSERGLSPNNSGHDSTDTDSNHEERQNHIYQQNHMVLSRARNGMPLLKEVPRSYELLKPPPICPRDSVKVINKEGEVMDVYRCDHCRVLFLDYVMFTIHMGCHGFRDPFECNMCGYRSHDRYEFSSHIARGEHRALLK
T1 sequence (Q96SW2 whole entry): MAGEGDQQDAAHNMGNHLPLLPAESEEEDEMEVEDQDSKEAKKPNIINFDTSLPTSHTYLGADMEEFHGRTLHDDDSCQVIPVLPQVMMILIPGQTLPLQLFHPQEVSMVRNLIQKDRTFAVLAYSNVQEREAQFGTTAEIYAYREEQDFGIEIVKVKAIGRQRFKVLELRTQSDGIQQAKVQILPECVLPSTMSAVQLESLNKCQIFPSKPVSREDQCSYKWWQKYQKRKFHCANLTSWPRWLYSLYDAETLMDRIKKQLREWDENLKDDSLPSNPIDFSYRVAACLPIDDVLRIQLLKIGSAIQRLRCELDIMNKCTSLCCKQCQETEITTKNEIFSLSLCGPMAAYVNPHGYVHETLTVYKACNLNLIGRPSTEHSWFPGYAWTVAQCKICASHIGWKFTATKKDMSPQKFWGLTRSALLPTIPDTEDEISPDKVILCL
T1 sequence (Q16531 whole entry partner): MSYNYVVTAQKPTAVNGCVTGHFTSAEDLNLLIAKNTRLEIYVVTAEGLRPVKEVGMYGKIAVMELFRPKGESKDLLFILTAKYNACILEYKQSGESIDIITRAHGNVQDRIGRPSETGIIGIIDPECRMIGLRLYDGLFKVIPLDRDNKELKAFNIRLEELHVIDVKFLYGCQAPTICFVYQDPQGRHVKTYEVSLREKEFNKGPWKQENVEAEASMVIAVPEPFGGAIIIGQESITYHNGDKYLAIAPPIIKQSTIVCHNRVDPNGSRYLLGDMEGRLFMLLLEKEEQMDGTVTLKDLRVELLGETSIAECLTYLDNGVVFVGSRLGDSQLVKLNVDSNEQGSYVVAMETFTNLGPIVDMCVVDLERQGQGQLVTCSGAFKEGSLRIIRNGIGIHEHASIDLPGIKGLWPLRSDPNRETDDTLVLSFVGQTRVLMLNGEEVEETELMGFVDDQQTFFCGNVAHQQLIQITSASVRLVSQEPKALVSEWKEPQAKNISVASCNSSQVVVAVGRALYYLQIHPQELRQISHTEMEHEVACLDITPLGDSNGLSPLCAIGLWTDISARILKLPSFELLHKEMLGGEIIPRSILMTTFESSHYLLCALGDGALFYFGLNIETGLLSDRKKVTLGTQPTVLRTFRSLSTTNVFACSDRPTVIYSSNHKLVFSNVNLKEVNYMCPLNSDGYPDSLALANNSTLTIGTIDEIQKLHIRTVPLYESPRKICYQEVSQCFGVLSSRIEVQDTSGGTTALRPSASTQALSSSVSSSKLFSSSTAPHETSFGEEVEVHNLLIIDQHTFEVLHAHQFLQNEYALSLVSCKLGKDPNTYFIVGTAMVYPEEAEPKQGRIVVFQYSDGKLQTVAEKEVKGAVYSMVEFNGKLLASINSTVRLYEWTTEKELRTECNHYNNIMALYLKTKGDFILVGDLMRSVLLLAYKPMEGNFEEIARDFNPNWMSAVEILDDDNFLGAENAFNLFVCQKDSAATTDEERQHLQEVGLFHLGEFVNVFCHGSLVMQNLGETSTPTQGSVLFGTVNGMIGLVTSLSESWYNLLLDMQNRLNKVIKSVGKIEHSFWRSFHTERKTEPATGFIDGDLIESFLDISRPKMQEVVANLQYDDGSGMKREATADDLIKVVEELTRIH

WEE1 = target: T2, WEE1 (Homo sapiens, UniProt P30291+Q96SW2); experiment: Western-blot assay, substrate protein degradation in hPBMCs: WEE1; conditions: for substrate protein remaining % WEE1: 24 hours of compound treatment, 50 nM and 500 nM; for WEE1 substrate protein remaining %: compounds at 50 nM and 500 nM, 24 hours
T2 construct: effects of the compounds of the present disclosure on the expression of target proteins in cells; endogenous in cells; host or cells: human PBMCs (hPBMCs)

GSPT1 = target: T3, GSPT1 (Homo sapiens, UniProt P15170+Q96SW2); experiment: Western-blot assay, substrate protein degradation in hPBMCs: GSPT1; conditions: for substrate protein remaining % GSPT1: 24 hours of compound treatment, 50 nM and 500 nM; for GSPT1 substrate protein remaining %: compounds at 50 nM and 500 nM, 24 hours
T3 construct: effects of the compounds of the present disclosure on the expression of target proteins in cells; endogenous in cells; host or cells: human PBMCs (hPBMCs)
T3 sequence (P15170 whole entry): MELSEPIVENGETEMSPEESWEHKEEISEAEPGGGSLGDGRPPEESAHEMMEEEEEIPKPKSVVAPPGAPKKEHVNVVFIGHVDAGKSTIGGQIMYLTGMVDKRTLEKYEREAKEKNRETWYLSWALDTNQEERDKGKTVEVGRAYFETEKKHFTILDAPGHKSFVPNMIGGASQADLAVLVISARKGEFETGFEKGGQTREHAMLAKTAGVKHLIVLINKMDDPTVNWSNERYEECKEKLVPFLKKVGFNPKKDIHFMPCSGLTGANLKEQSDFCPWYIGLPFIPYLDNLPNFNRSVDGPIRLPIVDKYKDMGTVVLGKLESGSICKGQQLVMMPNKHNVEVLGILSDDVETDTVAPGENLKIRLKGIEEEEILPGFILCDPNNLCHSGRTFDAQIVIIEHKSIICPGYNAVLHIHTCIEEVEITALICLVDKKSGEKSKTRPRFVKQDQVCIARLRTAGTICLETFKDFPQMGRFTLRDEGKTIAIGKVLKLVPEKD
T3 sequence (Q96SW2 whole entry): as the sequence (Q96SW2 whole entry) above
T3 sequence (Q16531 whole entry partner): as the sequence (Q16531 whole entry partner) above

IKZF2 = target: T4, IKZF2 (Homo sapiens, UniProt Q96SW2+Q9UKS7); experiment: Western-blot assay, substrate protein degradation in hPBMCs: IKZF2; conditions: for substrate protein remaining % IKZF2: 24 hours of compound treatment, 50 nM and 500 nM; for IKZF2 substrate protein remaining %: compounds at 50 nM and 500 nM, 24 hours
T4 construct: effects of the compounds of the present disclosure on the expression of target proteins in cells; endogenous in cells; host or cells: human PBMCs (hPBMCs)
T4 sequence (Q9UKS7 whole entry): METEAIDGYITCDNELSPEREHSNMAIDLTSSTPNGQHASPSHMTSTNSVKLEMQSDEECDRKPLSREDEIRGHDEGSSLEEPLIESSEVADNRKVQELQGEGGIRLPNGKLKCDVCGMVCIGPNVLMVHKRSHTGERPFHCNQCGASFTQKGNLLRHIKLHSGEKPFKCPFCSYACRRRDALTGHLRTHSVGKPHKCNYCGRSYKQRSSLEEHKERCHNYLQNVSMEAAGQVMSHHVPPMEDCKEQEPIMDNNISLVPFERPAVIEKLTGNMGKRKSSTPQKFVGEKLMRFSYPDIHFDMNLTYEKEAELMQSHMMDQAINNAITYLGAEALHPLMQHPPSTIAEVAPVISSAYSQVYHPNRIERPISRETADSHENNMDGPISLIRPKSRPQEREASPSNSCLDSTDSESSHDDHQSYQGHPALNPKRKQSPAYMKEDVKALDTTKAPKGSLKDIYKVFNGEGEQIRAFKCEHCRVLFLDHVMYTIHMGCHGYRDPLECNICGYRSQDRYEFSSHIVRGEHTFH
T4 sequence (Q96SW2 whole entry): as the sequence (Q96SW2 whole entry) above
T4 sequence (Q16531 whole entry partner): as the sequence (Q16531 whole entry partner) above

IKZF1 = target: T5, IKZF1 (Homo sapiens, UniProt Q13422+Q96SW2); experiment: Western-blot assay, substrate protein degradation in hPBMCs: IKZF1; conditions: for substrate protein remaining % IKZF1: 24 hours of compound treatment, 50 nM and 500 nM; for IKZF1 substrate protein remaining %: compounds at 50 nM and 500 nM, 24 hours
T5 construct: effects of the compounds of the present disclosure on the expression of target proteins in cells; endogenous in cells; host or cells: human PBMCs (hPBMCs)
T5 sequence (Q13422 whole entry): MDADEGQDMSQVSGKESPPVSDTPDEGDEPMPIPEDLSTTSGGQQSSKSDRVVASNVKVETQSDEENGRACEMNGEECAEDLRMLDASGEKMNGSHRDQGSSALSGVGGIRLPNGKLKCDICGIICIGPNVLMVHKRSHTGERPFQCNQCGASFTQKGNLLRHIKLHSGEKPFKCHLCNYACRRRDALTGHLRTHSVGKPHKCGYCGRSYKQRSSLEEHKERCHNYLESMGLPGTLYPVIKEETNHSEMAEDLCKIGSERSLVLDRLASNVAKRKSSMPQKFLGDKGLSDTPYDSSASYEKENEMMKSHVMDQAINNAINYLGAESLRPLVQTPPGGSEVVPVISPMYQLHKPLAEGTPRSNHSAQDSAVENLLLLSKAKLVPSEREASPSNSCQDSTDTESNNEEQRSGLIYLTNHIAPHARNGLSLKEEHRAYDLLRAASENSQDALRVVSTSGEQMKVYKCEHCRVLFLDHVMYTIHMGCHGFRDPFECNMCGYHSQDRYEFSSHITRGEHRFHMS
T5 sequence (Q96SW2 whole entry): as the sequence (Q96SW2 whole entry) above
T5 sequence (Q16531 whole entry partner): as the sequence (Q16531 whole entry partner) above

CK1α = target: T6, CK1α (Homo sapiens, UniProt P48729+Q96SW2); experiment: Western-blot assay, substrate protein degradation in hPBMCs: CK1α; conditions: for substrate protein remaining % CK1α: 24 hours of compound treatment, 50 nM and 500 nM; for CK1α substrate protein remaining %: compounds at 50 nM and 500 nM, 24 hours
T6 construct: effects of the compounds of the present disclosure on the expression of target proteins in cells; endogenous in cells; host or cells: human PBMCs (hPBMCs)
T6 sequence (P48729 whole entry): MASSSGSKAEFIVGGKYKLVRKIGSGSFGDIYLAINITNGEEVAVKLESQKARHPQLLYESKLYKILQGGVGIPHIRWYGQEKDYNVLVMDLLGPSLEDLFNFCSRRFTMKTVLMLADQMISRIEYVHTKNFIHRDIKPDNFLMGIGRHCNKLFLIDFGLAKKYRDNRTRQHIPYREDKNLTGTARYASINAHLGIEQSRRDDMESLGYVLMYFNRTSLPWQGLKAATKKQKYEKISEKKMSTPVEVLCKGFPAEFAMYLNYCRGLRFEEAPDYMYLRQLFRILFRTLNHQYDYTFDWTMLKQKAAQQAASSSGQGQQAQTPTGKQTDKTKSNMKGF
T6 sequence (Q96SW2 whole entry): as the sequence (Q96SW2 whole entry) above
T6 sequence (Q16531 whole entry partner): as the sequence (Q16531 whole entry partner) above

Row | SMILES | substrate protein remaining % IKZF3 (IKZF3) | substrate protein remaining % WEE1 (WEE1) | substrate protein remaining % GSPT1 (GSPT1) | substrate protein remaining % IKZF2 (IKZF2) | substrate protein remaining % IKZF1 (IKZF1) | substrate protein remaining % CK1α (CK1α) | IKZF3 substrate protein remaining % (IKZF3) | WEE1 substrate protein remaining % (WEE1) | GSPT1 substrate protein remaining % (GSPT1) | IKZF2 substrate protein remaining % (IKZF2) | IKZF1 substrate protein remaining % (IKZF1) | CK1α substrate protein remaining % (CK1α)
1 | O=C1CCN(N2C(=O)c3ccc(CN4CCN(c5noc6cc(F)ccc56)CC4)cc3C2=O)C(=O)N1 [GT-07524, 2-(2,4-dioxotetrahydropyrimidin-1(2H)-yl)-5-((4-(6-fluorobenzo[d]isoxazol-3-yl)piperazin-1-yl)methyl)isoindoline-1,3-dione] | B (80%< substrate protein remaining %≤ 100%) | A (0% ≤ substrate protein remaining % ≤ 80%) | A (0% ≤ substrate protein remaining % ≤ 80%) | A (0% ≤ substrate protein remaining % ≤ 80%) | A (0% ≤ substrate protein remaining % ≤ 80%) | B (80%< substrate protein remaining %≤ 100%) |  |  |  |  |  | 
2 | Cc1cc(N2CCN(Cc3ccc4c(c3)CN(N3CCC(=O)NC3=O)C4=O)CC2)ccn1 [GT-05438, 1-(5-((4-(2-methylpyridin-4-yl)piperazin-1-yl)methyl)-1-oxoisoindolin-2-yl)dihydropyrimidine-2,4(1H,3H)-dione] | A (0% ≤ substrate protein remaining % ≤ 80%) | A (0% ≤ substrate protein remaining % ≤ 80%) | A (0% ≤ substrate protein remaining % ≤ 80%) | B (80%< substrate protein remaining %≤ 100%) | A (0% ≤ substrate protein remaining % ≤ 80%) | A (0% ≤ substrate protein remaining % ≤ 80%) |  |  |  |  |  | 
3 | O=C1CCN(N2C(=O)c3ccc(CN4CCC(c5ccco5)CC4)cc3C2=O)C(=O)N1 [GT-05315, 2-(2,4-dioxotetrahydropyrimidin-1(2H)-yl)-5-((4-(furan-2-yl)piperidin-1-yl)methyl)isoindoline-1,3-dione] |  |  |  |  |  |  | B ("B" is defined as 80%< substrate protein remaining %≤ 100%) | B ("B" is defined as 80%< substrate protein remaining %≤ 100%) | A ("A" is defined as 0% ≤ substrate protein remaining % ≤ 80%) | B ("B" is defined as 80%< substrate protein remaining %≤ 100%) | B ("B" is defined as 80%< substrate protein remaining %≤ 100%) | B ("B" is defined as 80%< substrate protein remaining %≤ 100%)
4 | O=C1CCN(N2C(=O)c3ccc(CN4CC=C(c5ccsc5)CC4)cc3C2=O)C(=O)N1 [GT-06435, 2-(2,4-dioxotetrahydropyrimidin-1(2H)-yl)-5-((4-(thiophen-3-yl)-3,6-dihydropyridin-1(2H)-yl)methyl)isoindoline-1,3-dione] |  |  |  |  |  |  | A ("A" is defined as 0% ≤ substrate protein remaining % ≤ 80%) | A ("A" is defined as 0% ≤ substrate protein remaining % ≤ 80%) | A ("A" is defined as 0% ≤ substrate protein remaining % ≤ 80%) | A ("A" is defined as 0% ≤ substrate protein remaining % ≤ 80%) | B ("B" is defined as 80%< substrate protein remaining %≤ 100%) | B ("B" is defined as 80%< substrate protein remaining %≤ 100%)
5 | O=C1CCN(N2Cc3cc(CN4CCN(c5cnnc(Cl)c5Cl)CC4)ccc3C2=O)C(=O)N1 [GT-07029, 1-(5-((4-(5,6-dichloropyridazin-4-yl)piperazin-1-yl)methyl)-1-oxoisoindolin-2-yl)dihydropyrimidine-2,4(1H,3H)-dione] |  |  |  |  |  |  | B ("B" is defined as 80%< substrate protein remaining %≤ 100%) | A ("A" is defined as 0% ≤ substrate protein remaining % ≤ 80%) | A ("A" is defined as 0% ≤ substrate protein remaining % ≤ 80%) | A ("A" is defined as 0% ≤ substrate protein remaining % ≤ 80%) | B ("B" is defined as 80%< substrate protein remaining %≤ 100%) | B ("B" is defined as 80%< substrate protein remaining %≤ 100%)
6 | O=C1CCN(N2C(=O)c3ccc(CN4CCN(c5ccncc5F)CC4)cc3C2=O)C(=O)N1 [GT-07164, 2-(2,4-dioxotetrahydropyrimidin-1(2H)-yl)-5-((4-(3-fluoropyridin-4-yl)piperazin-1-yl)methyl)isoindoline-1,3-dione] |  |  |  |  |  |  | B ("B" is defined as 80%< substrate protein remaining %≤ 100%) | B ("B" is defined as 80%< substrate protein remaining %≤ 100%) | A ("A" is defined as 0% ≤ substrate protein remaining % ≤ 80%) | A ("A" is defined as 0% ≤ substrate protein remaining % ≤ 80%) | B ("B" is defined as 80%< substrate protein remaining %≤ 100%) | B ("B" is defined as 80%< substrate protein remaining %≤ 100%)
7 | Cc1cc(C2CCN(Cc3ccc4c(c3)CN(N3CCC(=O)NC3=O)C4=O)CC2)cs1 [GT-07373, 1-(5-((4-(5-methylthiophen-3-yl)piperidin-1-yl)methyl)-1-oxoisoindolin-2-yl)dihydropyrimidine-2,4(1H,3H)-dione] | A (0% ≤ substrate protein remaining % ≤ 80%) | B (80%< substrate protein remaining %≤ 100%) | A (0% ≤ substrate protein remaining % ≤ 80%) | B (80%< substrate protein remaining %≤ 100%) | B (80%< substrate protein remaining %≤ 100%) | B (80%< substrate protein remaining %≤ 100%) |  |  |  |  |  | 
8 | COc1cccc(N2CCN(Cc3ccc4c(c3)C(=O)N(N3CCC(=O)NC3=O)C4=O)CC2)c1 [GT-06721, 2-(2,4-dioxotetrahydropyrimidin-1(2H)-yl)-5-((4-(3-methoxyphenyl)piperazin-1-yl)methyl)isoindoline-1,3-dione] |  |  |  |  |  |  | A ("A" is defined as 0% ≤ substrate protein remaining % ≤ 80%) | B ("B" is defined as 80%< substrate protein remaining %≤ 100%) | B ("B" is defined as 80%< substrate protein remaining %≤ 100%) | A ("A" is defined as 0% ≤ substrate protein remaining % ≤ 80%) | A ("A" is defined as 0% ≤ substrate protein remaining % ≤ 80%) | B ("B" is defined as 80%< substrate protein remaining %≤ 100%)
9 | O=C1CCN(N2Cc3cc(CN4CCC(c5ccc(F)cc5)CC4)ccc3C2=O)C(=O)N1 [GT-06890, 1-(5-((4-(4-fluorophenyl)piperidin-1-yl)methyl)-1-oxoisoindolin-2-yl)dihydropyrimidine-2,4(1H,3H)-dione] |  |  |  |  |  |  | B ("B" is defined as 80%< substrate protein remaining %≤ 100%) | A ("A" is defined as 0% ≤ substrate protein remaining % ≤ 80%) | A ("A" is defined as 0% ≤ substrate protein remaining % ≤ 80%) | B ("B" is defined as 80%< substrate protein remaining %≤ 100%) | B ("B" is defined as 80%< substrate protein remaining %≤ 100%) | B ("B" is defined as 80%< substrate protein remaining %≤ 100%)
10 | O=C1CCN(N2Cc3cc(CN4CCN(CC5=C(c6ccc(F)cc6)CCCC5)CC4)ccc3C2=O)C(=O)N1 [GT-07297, 1-(5-((4-((4'-fluoro-3,4,5,6-tetrahydro-[1,1'-biphenyl]-2-yl)methyl)piperazin-1-yl)methyl)-1-oxoisoindolin-2-yl)dihydropyrimidine-2,4(1H,3H)-dione] | A (0% ≤ substrate protein remaining % ≤ 80%) | A (0% ≤ substrate protein remaining % ≤ 80%) | A (0% ≤ substrate protein remaining % ≤ 80%) | A (0% ≤ substrate protein remaining % ≤ 80%) | B (80%< substrate protein remaining %≤ 100%) | A (0% ≤ substrate protein remaining % ≤ 80%) |  |  |  |  |  | 
11 | O=C1CCN(N2Cc3cc(CN4CCN(c5c(F)cccc5F)CC4)ccc3C2=O)C(=O)N1 [GT-06780, 1-(5-((4-(2,6-difluorophenyl)piperazin-1-yl)methyl)-1-oxoisoindolin-2-yl)dihydropyrimidine-2,4(1H,3H)-dione] |  |  |  |  |  |  | B ("B" is defined as 80%< substrate protein remaining %≤ 100%) | B ("B" is defined as 80%< substrate protein remaining %≤ 100%) | B ("B" is defined as 80%< substrate protein remaining %≤ 100%) | B ("B" is defined as 80%< substrate protein remaining %≤ 100%) | B ("B" is defined as 80%< substrate protein remaining %≤ 100%) | A ("A" is defined as 0% ≤ substrate protein remaining % ≤ 80%)
12 | O=C1CCN(N2Cc3cc(CN4CCN(Cc5ccc(C67CC8CC(CC(C8)C6)C7)cc5)CC4)ccc3C2=O)C(=O)N1 [GT-07721, 1-(5-((4-(4-((3r,5r,7r)-adamantan-1-yl)benzyl)piperazin-1-yl)methyl)-1-oxoisoindolin-2-yl)dihydropyrimidine-2,4(1H,3H)-dione] | A (0% ≤ substrate protein remaining % ≤ 80%) | A (0% ≤ substrate protein remaining % ≤ 80%) | A (0% ≤ substrate protein remaining % ≤ 80%) | A (0% ≤ substrate protein remaining % ≤ 80%) | A (0% ≤ substrate protein remaining % ≤ 80%) | A (0% ≤ substrate protein remaining % ≤ 80%) |  |  |  |  |  | 
